{"source": "paper PMC13472183", "about": "(Journal of drug delivery science and technology, 2022)", "origin": "cited, not measured here", "details": "previous reported value, without the EDA modification", "data": [{"substance": "NH2-(VPGFG)6G-(GPO)7GG-CONH2 [F6-GPO7]", "values": [{"measurement": "Tm (triple helix melting temperature)", "value": 50, "unit": "°C"}]}]}
